In PubChem BioAssay (NCI):
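Dose response: 5 concentrations. Exposure: 48 h. Format: 96-well plates. Endpoint: linear interpolation; highest concentration if not reached. GI50 is the concentration that inhibits growth by half. TGI denotes the concentration required for complete inhibition of growth.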

What was measured:
Test in all cases: DTP human tumour cell line panel, 48 h
SNB-19 CNS = system: SNB-19 CNS
TK-10 renal = system: TK-10 renal
NCI-H226 lung = system: NCI-H226 lung
UACC-62 melanoma = system: UACC-62 melanoma
SF-268 CNS = system: SF-268 CNS
MCF7 breast = system: MCF7 breast
NCI-H460 lung = system: NCI-H460 lung
SF-539 CNS = system: SF-539 CNS
DU-145 prostate = system: DU-145 prostate
HS 578T breast = system: HS 578T breast

| SMILES | GI50 (SNB-19 CNS) | TGI (SNB-19 CNS) | GI50 (TK-10 renal) | TGI (TK-10 renal) | GI50 (NCI-H226 lung) | TGI (NCI-H226 lung) | GI50 (UACC-62 melanoma) | TGI (UACC-62 melanoma) | GI50 (SF-268 CNS) | TGI (SF-268 CNS) | GI50 (MCF7 breast) | TGI (MCF7 breast) | GI50 (NCI-H460 lung) | TGI (NCI-H460 lung) | GI50 (SF-539 CNS) | TGI (SF-539 CNS) | GI50 (DU-145 prostate) | TGI (DU-145 prostate) | TGI (HS 578T breast) | GI50 (HS 578T breast) |
| --- | --- | --- | --- | --- | --- | --- | --- | --- | --- | --- | --- | --- | --- | --- | --- | --- | --- | --- | --- | --- |
| Cc1cc(N)cc(C)c1-c1c(Br)cc(N)cc1Br | 5.3 µM | > 100 µM | 5.67 µM | 37.7 µM | 9.43 µM | > 100 µM | 3.52 µM | 24 µM | 6.36 µM | 68.5 µM | 4.54 µM | > 100 µM | 3.31 µM | 11.2 µM | 2.89 µM | 11.1 µM | 2.89 µM | 9.13 µM | – | – |
| Cn1cnc([N+](=O)[O-])c1Sc1nc2ccc([N+](=O)[O-])cc2[nH]1 | – | > 100 µM | – | 59.3 µM | – | > 100 µM | – | 28.2 µM | – | 53.1 µM | – | – | – | > 100 µM | – | 44 µM | – | – | – | – |
| NC(=O)c1ncn(Cc2ccccc2)c1CNC(N)=S | – | > 100 µM | – | > 100 µM | – | > 100 µM | – | > 100 µM | – | > 100 µM | – | – | – | > 100 µM | – | > 100 µM | – | – | – | – |
| O=c1c2cc(O)c(O)cc2oc2cc(O)c(C3OC(CO)C(O)C(O)C3O)c(O)c12 (stereo not given) | – | > 100 µM | – | > 100 µM | – | > 100 µM | – | > 100 µM | – | > 100 µM | – | > 100 µM | – | > 100 µM | – | > 100 µM | – | – | > 100 µM | – |
| O=C(CSc1ncc(-c2ccccc2)n1-c1ccccc1)Nc1ccc(-c2nc3ccccc3s2)cc1 | 15.1 µM | > 100 µM | 34.4 µM | > 100 µM | 43.3 µM | > 100 µM | 22.6 µM | > 100 µM | 3.5 µM | > 100 µM | 3.98 µM | > 100 µM | 3.61 µM | > 100 µM | 6.25 µM | > 100 µM | – | – | 80.8 µM | 4.89 µM |
| N#Cc1c(N)c(C#N)c2c(c1-c1ccc(Cl)cc1)COc1ccc(F)cc1-2 | > 50 µM | > 50 µM | 7.63 µM | 29.9 µM | – | – | 46.4 µM | > 50 µM | – | – | 16.5 µM | > 50 µM | 18.7 µM | > 50 µM | 28.2 µM | > 50 µM | 14.7 µM | > 50 µM | – | – |
| c1ccc2c(c1)N=C(c1ccc3ccccc3c1)CC(c1cccc3ccccc13)S2 (stereo not given) | – | > 100 µM | – | > 100 µM | – | > 100 µM | – | > 100 µM | – | > 100 µM | – | – | – | > 100 µM | – | > 100 µM | – | – | – | – |
| CC1(C)CC(N2CCN(C3CC(C)(C)NC(C)(C)C3)CC2)CC(C)(C)N1 | – | > 100 µM | – | > 100 µM | – | – | – | > 100 µM | – | > 100 µM | – | – | – | > 100 µM | – | > 100 µM | – | – | – | – |
| Cc1[nH]n(-c2cccc(Cl)c2)c(=O)c1/C=C1\C=c2ccccc2=CC1=O | 45.7 µM | > 100 µM | 35 µM | > 100 µM | – | – | 39.8 µM | > 100 µM | 97.1 µM | > 100 µM | – | – | > 100 µM | > 100 µM | – | > 100 µM | 70 µM | > 100 µM | > 100 µM | 32.6 µM |
| N#Cc1cn(-c2c3ccccc3nc3ccccc23)c(=O)[nH]c1=O | – | 90.7 µM | – | > 100 µM | – | – | – | 38.8 µM | – | 29.7 µM | – | – | – | – | – | 7.71 µM | – | – | – | – |
| O=C(NC1C(=O)NNC1c1ccccc1Cl)c1ccccc1 (stereo not given) | – | > 100 µM | – | > 100 µM | – | > 100 µM | – | > 100 µM | – | > 100 µM | – | – | – | > 100 µM | – | > 100 µM | – | – | – | – |
| N#CC1C(=O)NC(=O)C1=O (stereo not given) | – | > 100 µM | – | > 100 µM | – | > 100 µM | – | > 100 µM | – | > 100 µM | – | – | – | > 100 µM | – | > 100 µM | – | – | – | – |
| NC(=O)c1cc([N+](=O)[O-])cc([N+](=O)[O-])c1 | – | > 100 µM | – | > 100 µM | – | > 100 µM | – | > 100 µM | – | > 100 µM | – | – | – | > 100 µM | – | > 100 µM | – | – | – | – |
| COC(=O)/C(=N/NC(C)(C)C)C(C(=O)OC)C(=O)C(=O)Nc1nc2ccc([N+](=O)[O-])cc2s1 (stereo not given) | – | > 100 µM | – | > 100 µM | – | > 100 µM | – | > 100 µM | – | > 100 µM | – | – | – | > 100 µM | – | > 100 µM | – | – | – | – |
| O=C1c2ccccc2C(=O)c2c1ccc1c2N=C(c2ccc(Br)cc2)CC(c2cccc3ccccc23)N1 (stereo not given) | – | > 100 µM | – | > 100 µM | – | > 100 µM | – | > 100 µM | – | > 100 µM | – | – | – | > 100 µM | – | > 100 µM | – | – | – | – |
| CC1CC(c2ccc(Cl)c(Cl)c2)=Nc2ccccc2S1 (stereo not given) | – | > 100 µM | – | > 100 µM | – | > 100 µM | – | > 100 µM | – | > 100 µM | – | – | – | > 100 µM | – | > 100 µM | – | – | – | – |
| CC1(C)OC(=O)C(=Cc2ccc([N+](=O)[O-])s2)C(=O)O1 | – | 31.6 µM | – | 31.5 µM | – | 60.5 µM | – | – | – | 29.5 µM | – | 68.4 µM | – | > 100 µM | – | 29.4 µM | – | 30.9 µM | – | – |
| COC(=O)C1=C(\O)C[C@@]2(C)CC[C@@H](C(=O)OC)C2C/C=C\1C(=O)OC (stereo not given in full) | – | > 100 µM | – | > 100 µM | – | > 100 µM | – | > 100 µM | – | > 100 µM | – | – | – | > 100 µM | – | 38.8 µM | – | – | – | – |
| O=C(O)c1cn(C2CC2)c2cc(N3CCN(Cc4ccc5ccccc5c4O)CC3)c(F)cc2c1=O | 29.8 µM | > 100 µM | – | – | 3.14 µM | > 100 µM | 5.06 µM | > 100 µM | 8.13 µM | > 100 µM | 3.63 µM | > 100 µM | – | – | – | – | – | – | 6.9 µM | 2.3 µM |
| O=C(Nc1ccccc1)Nc1ccc(Cl)c(Cl)c1 | 3.1 µM | > 100 µM | 3.83 µM | 36.2 µM | 3.06 µM | > 100 µM | 2.66 µM | > 100 µM | 4.76 µM | > 100 µM | 3.14 µM | 73.3 µM | 3.06 µM | > 100 µM | – | – | 3.69 µM | > 100 µM | 29 µM | 2.9 µM |
| Nc1nc2ncn(CC(O)COC(=O)c3ccccc3)c2c(=O)[nH]1 (stereo not given) | – | – | – | > 100 µM | – | > 100 µM | – | > 100 µM | – | > 100 µM | – | – | – | > 100 µM | – | > 100 µM | – | – | – | – |
| Cc1c(O)c(Br)c(C)c(O)c1Br (tested in a mixture with another compound) | – | 41.7 µM | – | 3.01 µM | – | 14.8 µM | – | 10.8 µM | – | 8.45 µM | – | – | – | 16.1 µM | – | 10 µM | – | 5.15 µM | 19.9 µM | – |
| CN1CCc2cc3c4cc2C1Cc1ccc(cc1)Oc1cc(ccc1O)CC1c2c(cc(O)c(c2O4)O3)CCN1C (stereo not given) | – | 7.38 µM | – | 31 µM | – | 4.97 µM | – | 3.76 µM | – | 6.18 µM | – | – | – | 4.01 µM | – | 3.21 µM | – | – | – | – |
